According to patent US20250129078A1, “ERBB2 INHIBITORS” (Cogent Biosciences, Inc., priority 2023, published 2025):

Molecular target: EGFR WT (Homo sapiens (Human), UniProt P00533)
Assay: ErbB enzyme assay (CisBio HTRF-KinEASE-TK), EGFR WT
Format: biochemical
Details: ATP at Km (25 μM), 1 h incubation
In short: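 Tyrosine kinase HTRF, 1 h RT reaction → quench (Sa-XL665/TK-Ab-Cryptate) → 1 h RT → 655/620 ratio.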

Chain of EGFR WT (P00533 25-1210): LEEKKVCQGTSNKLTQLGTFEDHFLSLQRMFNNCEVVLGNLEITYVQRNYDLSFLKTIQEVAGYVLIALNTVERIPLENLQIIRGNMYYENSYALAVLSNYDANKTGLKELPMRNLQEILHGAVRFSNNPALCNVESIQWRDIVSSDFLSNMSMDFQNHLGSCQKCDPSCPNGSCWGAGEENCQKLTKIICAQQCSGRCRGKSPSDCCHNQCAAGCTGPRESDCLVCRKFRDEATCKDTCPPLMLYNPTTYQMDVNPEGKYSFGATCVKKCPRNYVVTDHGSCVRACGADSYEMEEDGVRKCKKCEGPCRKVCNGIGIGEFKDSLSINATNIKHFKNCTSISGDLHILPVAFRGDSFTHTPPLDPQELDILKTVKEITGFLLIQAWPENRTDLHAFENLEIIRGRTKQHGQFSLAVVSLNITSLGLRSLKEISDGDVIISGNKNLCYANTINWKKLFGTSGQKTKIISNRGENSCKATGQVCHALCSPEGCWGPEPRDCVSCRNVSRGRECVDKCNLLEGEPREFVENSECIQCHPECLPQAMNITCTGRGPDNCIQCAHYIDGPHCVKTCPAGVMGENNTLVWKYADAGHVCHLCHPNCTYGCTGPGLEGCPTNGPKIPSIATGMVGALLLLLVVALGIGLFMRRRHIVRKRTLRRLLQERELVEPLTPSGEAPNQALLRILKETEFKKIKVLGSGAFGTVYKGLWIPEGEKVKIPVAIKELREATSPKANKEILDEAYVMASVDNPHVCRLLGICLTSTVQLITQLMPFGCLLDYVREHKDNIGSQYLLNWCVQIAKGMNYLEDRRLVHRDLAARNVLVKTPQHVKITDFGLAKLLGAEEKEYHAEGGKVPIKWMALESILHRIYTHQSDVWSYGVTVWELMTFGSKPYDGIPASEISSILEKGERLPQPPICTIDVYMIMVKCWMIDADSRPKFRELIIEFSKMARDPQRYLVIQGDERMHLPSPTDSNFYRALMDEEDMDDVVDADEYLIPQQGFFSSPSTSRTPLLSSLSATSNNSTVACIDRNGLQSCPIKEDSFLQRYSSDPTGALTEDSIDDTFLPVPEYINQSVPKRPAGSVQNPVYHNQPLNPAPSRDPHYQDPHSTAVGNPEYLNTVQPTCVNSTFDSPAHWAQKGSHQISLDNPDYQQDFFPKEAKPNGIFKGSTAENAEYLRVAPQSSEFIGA

IC50 [nM]	SMILES
≥ 1000	C=CC(=O)N[C@@H]1CCCN(c2ccc3ncnc(Nc4ccc(Oc5ccc6c(c5)nnn6C)c(C)c4F)c3n2)CC1 [Compound 283, (R)-N-(1-(4-((2-fluoro-3-methyl-4-((1-methyl-1H-benzo[d][1,2,3]triazol-5-yl)oxy)phenyl)amino)pyrido[3,2-d]pyrimidin-6-yl)azepan-4-yl)acrylamide]
500 to 1000	C=C(F)C(=O)N1CCN(c2ccc3ncnc(Nc4ccc(Oc5ccc6c(c5)nnn6C)c(C)c4)c3n2)C[C@@H]1CC#N [Compound 85, (S)-2-(1-(2-fluoroacryloyl)-4-(4-((3-methyl-4-((1-methyl-1H-benzo[d][1,2,3]triazol-5-yl)oxy)phenyl)amino)pyrido[3,2-d]pyrimidin-6-yl)piperazin-2-yl)acetonitrile]
< 50	C=CC(=O)N1CCN(c2ncc3ncnc(Nc4ccc(Oc5cc(C)c6c(c5)nnn6C)c(C)c4)c3n2)CC1 [Compound 130, 1-(4-(8-((4-((1,7-dimethyl-1H-benzo[d][1,2,3]triazol-5-yl)oxy)-3-methylphenyl)amino)pyrimido[5,4-d]pyrimidin-2-yl)piperazin-1-yl)prop-2-en-1-one]
≥ 1000	C=CC(=O)N1[C@H](C)CN(c2ccc3ncnc(Nc4ccc(Oc5ccc6c(c5)nnn6C)c(C)c4)c3n2)C[C@H]1C [Compound 248, 1-((2R,6R)-2,6-dimethyl-4-(4-((3-methyl-4-((1-methyl-1H-benzo[d][1,2,3]triazol-5-yl)oxy)phenyl)amino)pyrido[3,2-d]pyrimidin-6-yl)piperazin-1-yl)prop-2-en-1-one]
100 to 500	C=CC(=O)N1CCN(c2ncc3ncnc(Nc4ccc(Oc5cc(F)c6c(c5)ncn6C)c(C)c4)c3n2)C[C@H]1CC [Compound 163, (R)-1-(2-ethyl-4-(8-((4-((7-fluoro-1-methyl-1H-benzo[d]imidazol-5-yl)oxy)-3-methylphenyl)amino)pyrimido[5,4-d]pyrimidin-2-yl)piperazin-1-yl)prop-2-en-1-one]
≥ 1000	C=C(COC)C(=O)N1CCN(c2ncc3ncnc(Nc4ccc(Oc5ccc6c(c5)nnn6C)c(C)c4)c3n2)CC1 [Compound 54, 2-(methoxymethyl)-1-(4-(8-((3-methyl-4-((1-methyl-1H-benzo[d][1,2,3]triazol-5-yl)oxy)phenyl)amino)pyrimido [5,4-d]pyrimidin-2-yl)piperazin-1-yl) prop-2-en-1-one]
≥ 1000	C=C(F)C(=O)N1CCN(c2ccc3ncnc(Nc4ccc(Oc5ccc6c(c5)nnn6C)c(C)c4)c3n2)C[C@H]1CC#N [Compound 86, (R)-2-(1-(2-fluoroacryloyl)-4-(4-((3-methyl-4-((1-methyl-1H-benzo[d][1,2,3]triazol-5-yl)oxy)phenyl)amino)pyrido[3,2-d]pyrimidin-6-yl)piperazin-2-yl)acetonitrile]
50 to 100	C=CC(=O)N1CCN(c2ncc3ncnc(Nc4ccc(Oc5cc(F)c6c(c5)nnn6C)c(C)c4)c3n2)C[C@H]1C [Compound 171, (R)-1-(4-(8-((4-((7-fluoro-1-methyl-1H-benzo[d][1,2,3]triazol-5-yl)oxy)-3-methylphenyl)amino)pyrimido[5,4-d]pyrimidin-2-y1)-2-methylpiperazin-1-yl)prop-2-en-1-one]
< 50	C=CC(=O)N[C@]1(C)CCN(c2ncc3ncnc(Nc4ccc(Oc5ccc6c(c5)nnn6C)c(C)c4F)c3n2)C1 [Compound 161, (R)-N-(1-(8-((2-fluoro-3-methyl-4-((1-methyl-1H-benzo[d][1,2,3]triazol-5-yl)oxy)phenyl)amino)pyrimido[5,4-d]pyrimidin-2-yl)-3-methylpyrrolidin-3-yl)acrylamide]
< 50	C=CC(=O)N[C@H]1CCN(c2ccc3ncnc(Nc4ccc(Oc5ccc6c(c5)nnn6C)c(C)c4F)c3n2)C[C@H]1F [Compound 281, N-((3R,4S)-3-fluoro-1-(4-((2-fluoro-3-methyl-4-((1-methyl-1H-benzo[d][1,2,3]triazol-5-yl)oxy)phenyl)amino)pyrido[3,2-d]pyrimidin-6-yl)piperidin-4-yl)acrylamide]
≥ 1000	C=C(F)C(=O)N1CC[C@H](N(C)c2ccc3ncnc(Nc4ccc(Oc5ccc6c(c5)nnn6C)c(C)c4F)c3n2)C1 [Compound 365, (S)-2-fluoro-1-(3-((4-((2-fluoro-3-methyl-4-((1-methyl-1H-benzo[d][1,2,3]triazol-5-yl)oxy)phenyl)amino)pyrido[3,2-d]pyrimidin-6-yl)(methyl)amino)pyrrolidin-1-yl)prop-2-en-1-one]
≥ 1000	C=C(COC)C(=O)NC1(C)CCN(c2ncc3ncnc(Nc4ccc(Oc5ccc6c(c5)nnn6C)c(C)c4)c3n2)CC1 [Compound 215, 2-(methoxy-methyl)-N-(4-methyl-1-(8-((3-methyl-4-((1-methyl-1H-benzo[d][1,2,3]triazol-5-yl)oxy)phenyl)amino)pyrimido [5,4-d]pyrimidin-2-yl)piperidin-4-yl)acrylamide]
≥ 1000	C=CC(=O)N1C(C)(C)CC(c2ccc3ncnc(Nc4ccc(Oc5ccc6c(c5)nnn6C)c(C)c4)c3n2)CC1(C)C [Compound 399, 1-(2,2,6,6-tetramethyl-4-(4-((3-methyl-4-((1-methyl-1H-benzo[d][1,2,3]triazol-5-yl)oxy)phenyl)amino)pyrido[3,2-d]pyrimidin-6-yl)piperidin-1-yl)prop-2-en-1-one]
< 50	C=CC(=O)N1CCN(c2nc3c(Nc4ccc(Oc5ccc6c(c5)nnn6C)c(C)c4)ncnc3cc2OC)CC1 [Compound 98, 1-(4-(7-methoxy-4-((3-methyl-4-((1-methyl-1H-benzo[d][1,2,3]triazol-5-yl)oxy)phenyl)amino)pyrido[3,2-d]pyrimidin-6-yl)piperazin-1-yl)prop-2-en-1-one]
100 to 500	C=CC(=O)N[C@H]1CN(c2ncc3ncnc(Nc4ccc(Oc5ccc6c(c5)nnn6C)c(C)c4F)c3n2)CC[C@@H]1C [Compound 229, N-((3R,4S)-1-(8-((2-fluoro-3-methyl-4-((1-methyl-1H-benzo[d][1,2,3]triazol-5-yl)oxy)phenyl)amino)pyrimido[5,4-d]pyrimidin-2-yl)-4-methylpiperidin-3-yl)acrylamide]
< 50	C=CC(=O)N1CCN(c2ncc3ncnc(Nc4ccc(Oc5ccc6c(c5)nnn6C)c(C)c4F)c3n2)CC1 [Compound 7, 1-(4-(8-((2-fluoro-3-methyl-4-((1-methyl-1H-benzo[d][1,2,3]triazol-5-yl)oxy)phenyl)amino)pyrimido [5,4-d]pyrimidin-2-y1)piperazin-1-yl)prop-2-en-1-one]
< 50	C=CC(=O)N1CCN(c2ncc3ncnc(Nc4ccc(Oc5cnn6ccnc6c5)c(C)c4)c3n2)CC1 [Compound 234, 1-(4-(8-((4-(imidazo[1,2-b]pyridazin-7-yloxy)-3-methylphenyl)amino)pyrimido[5,4-d]pyrimidin-2-yl)piperazin-1-yl)prop-2-en-1-one]
< 50	C=CC(=O)N1CCN(c2ccc3ncnc(Nc4ccc(Oc5ccc6c(c5)nnn6C)c(C)c4)c3n2)C[C@@H]1CC#N [Compound 83, (S)-2-(1-acryloyl-4-(4-((3-methyl-4-((1-methyl-1H-benzo[d][1,2,3]triazol-5-yl)oxy)phenyl)amino)pyrido[3,2-d]pyrimidin-6-yl)piperazin-2-yl)acetonitrile]
< 50	C=CC(=O)N1CCN(c2ccc3ncnc(Nc4ccc(Oc5cnc6ccnn6c5)c(C)c4)c3n2)CC1 [Compound 319, 1-(4-(4-((3-methyl-4-(pyrazolo[1,5-a]pyrimidin-6-yloxy)phenyl)amino)pyrido[3,2-d]pyrimidin-6-yl)piperazin-1-yl)prop-2-en-1-one]
< 50	C=CC(=O)N1CCN(c2ncc3ncnc(Nc4ccc(Oc5cnn6ccnc6c5)c(C)c4F)c3n2)CC1 [Compound 237, 1-(4-(8-((2-fluoro-4-(imidazo[1,2-b]pyridazin-7-yloxy)-3-methylphenyl)amino)pyrimido[5,4-d]pyrimidin-2-yl)piperazin-1-yl)prop-2-en-1-one]
< 50	C=CC(=O)N[C@]1(C)CCCN(c2ncc3ncnc(Nc4ccc(Oc5ccc6c(c5)nnn6C)c(C)c4)c3n2)C1 [Compound 200, (R)-N-(3-methyl-1-(8-((3-methyl-4-((1-methyl-1H-benzo[d][1,2,3]triazol-5-yl)oxy)phenyl)amino)pyrimido[5,4-d]pyrimidin-2-yl)piperidin-3-yl)acrylamide]
< 50	C=CC(=O)N1CCN(c2ncc3ncnc(Nc4ccc(Oc5ccc6c(c5)nnn6C)c(Cl)c4F)c3n2)CC1 [Compound 220, 1-(4-(8-((3-chloro-2-fluoro-4-((1-methyl-1H-benzo[d][1,2,3]triazol-5-yl)oxy)phenyl)amino)pyrimido[5,4-d]pyrimidin-2-yl)piperazin-1-yl)prop-2-en-1-one]
50 to 100	C=CC(=O)N1CCN(c2ccc3ncnc(Nc4ccc(Oc5ccc6c(c5)nnn6C)c(C)c4)c3n2)CC1 [Compound 92, 1-(4-(4-((3-methyl-4-((1-methyl-1H-benzo[d][1,2,3]triazol-5-yl)oxy)phenyl)amino)pyrido[3,2-d]pyrimidin-6-yl)piperazin-1-yl)prop-2-en-1-one]
50 to 100	Cc1cc(Nc2ncnc3ccc(N4CC5CCC(C4)N5C(=O)/C=C/C(F)F)nc23)ccc1Oc1ccc2c(c1)nnn2C [Compound 358, (E)-4,4-difluoro-1-(3-(4-((3-methyl-4-((1-methyl-1H-benzo[d][1,2,3]triazol-5-yl)oxy)phenyl)amino)pyrido[3,2-d]pyrimidin-6-yl)-3,8-diazabicyclo[3.2.1]octan-8-yl)but-2-en-1-one]
500 to 1000	Cc1cc(Nc2ncnc3ccc(N4CC[C@@H](C)N(C(=O)/C=C/C(F)F)CC4)nc23)ccc1Oc1ccn2ncnc2c1 [Compound 367, (R,E)-1-(4-(4-((4-([1,2,4]triazolo[1,5-a]pyridin-7-yloxy)-3-methylphenyl)amino)pyrido[3,2-d]pyrimidin-6-yl)-7-methyl-1,4-diazepan-1-y1)-4,4-difluorobut-2-en-1-one]
500 to 1000	C=CC(=O)N[C@H]1C[C@H](C)CN(c2ncc3ncnc(Nc4ccc(Oc5ccc6c(c5)nnn6C)c(C)c4F)c3n2)C1 (single isomer, unassigned) [Compound 202]
